# Test results taken from US20240239789A1, “SALTS OF 2-BRO[…] DIETHYLAMIDE” (Ceruvia Lifesciences LLC, priority 2022, published 2024).
# Key:
# Type in all cases: physicochemical
# [1] = Dynamic vapor sorption (DVS) moisture sorption analysis
# Method: (§1) Sorption isotherms were obtained using a Hiden Isochema moisture sorption analyser (model IGAsorp), controlled by IGAsorp Systems Software V6.50.48. The sample was maintained at a constant temperature (25° C.) by the instrument controls. The humidity was controlled by mixing streams of dry and wet nitrogen, with a total flow of 250 mL/min. The instrument was verified for relative humidity content by measuring three calibrated Rotronic salt solutions (10-50-88%). The weight change of the sample was monitored as a function of humidity by a microbalance (accuracy +/−0.005 mg). A defined amount of sample was placed in a tared mesh stainless steel basket under ambient conditions. A full experimental cycle typically consisted of three scans (sorption, desorption and sorption) at a constant temperature (25° C.) and 10% RH intervals over a 0-90% range (60 minutes for each humidity level).
# [2] = Thermogravimetric analysis (TGA) weight loss after drying; details: after drying in vacuo at 50° C. for 18 hours; between 25° C. and 200° C.; heating rate 20° C./min
# Method: TGA data were collected on a TA Instruments Discovery TGA equipped with a 25-position auto-sampler. The instrument was calibrated using a certified weight and certified Alumel and Nickel for temperature. A predefined amount of the sample, ca. 5 mg, was loaded into a pre-tared aluminum ACCUPIK™ sample pan and platinum crucible and was heated at 20° C./min from ambient (room) temperature to 400° C. unless otherwise stated. A nitrogen purge at 25 mL/min was maintained over the sample. The instrument control, data acquisition and analysis were performed with TA Instruments TRIOS software v4.1.1.33073.
# [3] = XRPD analysis ex DVS following equilibration at extremes of humidity; details: 0% and 90% relative humidity
# Source text: The crystalline salts of 2-Br-LSD were characterized by their powder X-ray diffraction patterns. Powder X-ray diffractograms of the crystalline salts of 2-Br-LSD described herein were collected on a PANalytical X'pert PRO diffractometer using Cu Kα radiation (45 kV, 40 mA), θ-θ goniometer, focusing mirror, divergence slit (½″), soller slits at both incident and divergent beam (4 mm) and a PIXcel detector. Data was presented using X'Pert Data Viewer, version 1.2d. XRPD patterns were acquired under ambient conditions via a transmission foil sample stage (polyimide—Kapton®, 12.7 μm thickness film). The data collection range was 2.994-35° 2θ with a continuous scan speed of 0.202004° s^−1. Lists of major XRPD peaks (relative intensity ≥10%) for the crystalline salts of the present disclosure are tabulated below.
# as §1, with “A defined amount of sample was placed in a tared mesh stainless steel basket under ambient conditions. A full experimental cycle typically consisted of three scans (sorption, desorption and sorption) at a constant temperature (25° C.) and 10% RH intervals over a 0-90% range (60 minutes for each humidity level).” left out
smiles,measurement,setting,value
"Br.CCN(CC)C(=O)[C@@H]1C=C2c3cccc4[nH]c(Br)c(c34)C[C@H]2N(C)C1 [2-Br-LSD hydrobromide (Form 1), 2-bromolysergic acid diethylamide hydrobromide]",weight change upon dynamic vapor sorption analysis,"[1]; 25° C., RH range 0-90%, 10% RH intervals, 60 minutes for each humidity level",less than 0.5%
same,water retained at 0% RH (reversibility of water uptake),"[1]; 25° C., desorption to 0% RH",no water was retained
same,further weight increase between 60% RH and 90% RH,"[1]; 25° C., initial sorption cycle, between 60% RH and 90% RH",0.2 wt %
same,water gained during initial sorption cycle up to 60% RH,"[1]; 25° C., initial sorption cycle, up to 60% RH",0.21%
same,total water uptake,"[1]; 25° C., initial sorption cycle, up to 90% RH",0.4%
same,hygroscopicity,[1]; definition in b65: TGA <1% weight loss and DVS <about 0.5% weight change,non-hygroscopic
same,weight loss upon thermogravimetric analysis,[2],less than 1%
same,solid form change following equilibration at extremes of humidity,[3],no form change occurred
